For assay [1], the system named is Cryptococcus neoformans. Nature of the assay: Antifungal activity against Cryptococcus neoformans by broth microdilution method. In kind it is functional.
Assay [2] concerns Aspergillus fumigatus. Nature of the assay: Antifungal activity against Aspergillus fumigatus by broth microdilution method. Format: functional. On the technique in general: Broth dilution looks for growth in wells or tubes with falling amounts of substance.
Assay [3] concerns Candida parapsilosis. Nature of the assay: Antifungal activity against Candida parapsilosis ATCC 22019 by broth microdilution method. In kind it is functional. To be noted: Lodderomyces parapsilosis.
The subject of assay [4] is Sporothrix schenckii. The experiment in a line: Antifungal activity against Sporothrix schenckii by broth microdilution method. In kind it is functional, organism-based.
The subject of assay [5] is Trichophyton mentagrophytes. Nature of the assay: Antifungal activity against Trichophyton mentagrophytes by broth microdilution method. Format: functional, organism-based.
The subject of assay [6] is Candida albicans. Nature of the assay: Antifungal activity against Candida albicans by broth microdilution method. Format: functional, organism-based.
The subject of assay [7] is Staphylococcus aureus. The experiment in a line: Antibacterial activity against Staphylococcus aureus ATCC 25923 by broth microdilution method. In kind it is functional, organism-based.

By MIC is commonly meant the lowest concentration found to suppress growth. A high value points to a need for much substance.

Consider `O=S(=O)(OC(CNCc1ccccc1)c1ccccc1)c1cccc(Cl)c1Cl` (stereo not given), for which the minimum inhibitory concentration (MIC) in assay [1] was above 50 µM; in assay [2], above 50 µM; in assay [3], above 50 µM; in assay [4] it was below 50 µM; in assay [5], below 50 µM. The IC50 in assay [4] (read-out: IC50) was 15.6 µM; in assay [4] (read-out: pIC50 (converted)), 15.6 µM; in assay [5] (read-out: IC50), 5.89 µM; in assay [5] (read-out: pIC50 (converted)) it was 5.89 µM.
As to `CC(C)(C)OC(=O)N(Cc1ccccc1)CC(OS(=O)(=O)c1cccc(Cl)c1Cl)c1ccccc1` (stereo not given), the MIC is above 50 µM in assay [1]; above 50 µM in assay [2]; above 50 µM in assay [3]; below 50 µM in assay [4]; below 50 µM in assay [5]. Moreover, the IC50 in assay [4] (read-out: IC50) is 26.7 µM; in assay [4] (read-out: pIC50 (converted)), 26.7 µM; in assay [5] (read-out: IC50) it was 0.33 µM.
On to `CC(C)(C)OC(=O)N(Cc1ccccc1)CC(OS(=O)(=O)c1cccc([N+](=O)[O-])c1)c1ccccc1` (stereo not given), for which the MIC was above 50 µM in assay [1], above 50 µM in assay [2], above 50 µM in assay [3] and below 50 µM in assay [4]. Besides, the IC50 in assay [4] (read-out: IC50) and in assay [4] (read-out: pIC50 (converted)) was 5.95 µM throughout.
Turning to `Cc1cc(C)cc(S(=O)(=O)OC(CN(Cc2ccccc2)C(=O)OC(C)(C)C)c2ccccc2)c1` (stereo not given), the MIC in assay [1] was above 50 µM; in assay [2], above 50 µM; in assay [3], above 50 µM; in assay [4], below 50 µM; in assay [5], below 50 µM; in assay [6], below 50 µM. Moreover, the IC50 in assay [4] (read-out: IC50) is 31.2 µM; in assay [4] (read-out: pIC50 (converted)), 31.2 µM; in assay [5] (read-out: IC50), 12.6 µM; in assay [5] (read-out: pIC50 (converted)) it was 12.6 µM; in assay [6] (read-out: IC50), 41.6 µM; in assay [6] (read-out: pIC50 (converted)) it was 41.6 µM.
For `CC(C)(C)OC(=O)N(Cc1ccccc1)CC(OS(=O)(=O)c1ccccc1C(F)(F)F)c1ccccc1` (stereo not given), the MIC is above 50 µM in assay [1]; above 50 µM in assay [2]; above 50 µM in assay [3]; below 50 µM in assay [4]; below 50 µM in assay [5]; below 50 µM in assay [6]. Also, the IC50 is 28.4 µM in assay [4] (read-out: IC50); 28.4 µM in assay [4] (read-out: pIC50 (converted)); 24.4 µM in assay [5] (read-out: IC50); 24.4 µM in assay [5] (read-out: pIC50 (converted)); 6.44 µM in assay [6] (read-out: IC50); 6.44 µM in assay [6] (read-out: pIC50 (converted)).
Take `CC(C)c1cc(C(C)C)c(S(=O)(=O)OC(CN(Cc2ccccc2)C(=O)OC(C)(C)C)c2ccccc2)c(C(C)C)c1` (stereo not given): the MIC is above 50 µM in assay [1]; above 50 µM in assay [2]; above 50 µM in assay [3]; below 50 µM in assay [4]; below 50 µM in assay [5]; below 50 µM in assay [6]. Moreover, the IC50 is 46.4 µM in assay [4] (read-out: IC50); 46.4 µM in assay [4] (read-out: pIC50 (converted)); 6.11 µM in assay [5] (read-out: IC50); 6.11 µM in assay [5] (read-out: pIC50 (converted)); 12.5 µM in assay [6] (read-out: IC50); 12.5 µM in assay [6] (read-out: pIC50 (converted)).
Consider `COc1ccc(CN(CC(OS(=O)(=O)c2cccc([N+](=O)[O-])c2)c2ccccc2)C(=O)OC(C)(C)C)cc1` (stereo not given), for which the MIC in assay [1] is above 50 µM; in assay [2] it was above 50 µM; in assay [3], above 50 µM; in assay [4] it was below 50 µM; in assay [5] it was below 50 µM. Also, the IC50 is 6.24 µM in assay [4] (read-out: IC50), 6.24 µM in assay [4] (read-out: pIC50 (converted)), 2.24 µM in assay [5] (read-out: IC50) and 2.24 µM in assay [5] (read-out: pIC50 (converted)).
In the case of `COc1ccc(CN(CC(OS(=O)(=O)c2ccc(F)cc2)c2ccccc2)C(=O)OC(C)(C)C)cc1` (stereo not given), the MIC in assay [1] was above 50 µM; in assay [2], above 50 µM; in assay [3], above 50 µM; in assay [4], below 50 µM; in assay [5], below 50 µM. Besides, the IC50 in assay [4] (read-out: IC50) was 23.2 µM; in assay [4] (read-out: pIC50 (converted)) it was 23.1 µM; in assay [5] (read-out: IC50) it was 2.76 µM; in assay [5] (read-out: pIC50 (converted)), 2.76 µM.
For the molecule `CC(C)(C)OC(=O)N(Cc1ccc(F)cc1)CC(OS(=O)(=O)c1c(Cl)cccc1Cl)c1ccccc1` (stereo not given), the MIC in assay [7] was below 50 µM; in assay [1] it was above 50 µM; in assay [2], above 50 µM; in assay [3] it was above 50 µM. Besides, the IC50 in assay [7] (read-out: IC50) and in assay [7] (read-out: pIC50 (converted)) was 12.5 µM throughout.
In the case of `CC(C)(C)OC(=O)N(Cc1ccc(F)cc1)CC(OS(=O)(=O)c1cccc([N+](=O)[O-])c1)c1ccccc1` (stereo not given), the MIC in assay [7] is below 50 µM; in assay [1], above 50 µM; in assay [2], above 50 µM; in assay [3] it was above 50 µM. For the same molecule, the IC50 was 39.9 µM in assay [7] (read-out: IC50) and 39.8 µM in assay [7] (read-out: pIC50 (converted)).
As to `CC(C)(C)OC(=O)N(Cc1ccc(F)cc1)CC(OS(=O)(=O)c1ccc(F)cc1)c1ccccc1` (stereo not given), the MIC in assay [7] is below 50 µM; in assay [1], above 50 µM; in assay [2] it was above 50 µM; in assay [3], above 50 µM. Further, the IC50 in assay [7] (read-out: IC50) and in assay [7] (read-out: pIC50 (converted)) was 22.6 µM throughout.
With `CC(C)(C)OC(=O)N(Cc1ccc(Cl)c(Cl)c1)CC(OS(=O)(=O)c1cccc(Cl)c1Cl)c1ccccc1` (stereo not given), the MIC in assay [1] was above 50 µM; in assay [2], above 50 µM; in assay [3], above 50 µM; in assay [4], below 50 µM. Moreover, the IC50 in assay [4] (read-out: IC50) and in assay [4] (read-out: pIC50 (converted)) was 23.3 µM each time.
On to `CC(C)(C)OC(=O)N(Cc1ccc(Cl)c(Cl)c1)CC(OS(=O)(=O)c1cccc([N+](=O)[O-])c1)c1ccccc1` (stereo not given), for which the MIC in assay [1] was above 50 µM; in assay [2], above 50 µM; in assay [3], above 50 µM; in assay [4], below 50 µM. The IC50 in assay [4] (read-out: IC50) and in assay [4] (read-out: pIC50 (converted)) was 24.4 µM throughout.
As for `COc1ccc(C(CN(Cc2ccccc2)C(=O)OC(C)(C)C)OS(=O)(=O)c2ccc(F)cc2)cc1` (stereo not given), the MIC in assay [1] was above 50 µM; in assay [2], above 50 µM; in assay [3], above 50 µM; in assay [5], below 50 µM. Also, the IC50 in assay [5] (read-out: IC50) was 22.8 µM; in assay [5] (read-out: pIC50 (converted)), 22.9 µM.
Consider `COc1ccc(C(CN(Cc2ccccc2)C(=O)OC(C)(C)C)OS(=O)(=O)c2c(Cl)cccc2Cl)cc1` (stereo not given), for which the MIC in assay [1] was above 50 µM; in assay [2], above 50 µM; in assay [3], above 50 µM; in assay [5], below 50 µM. The IC50 in assay [5] (read-out: IC50) was 13.5 µM; in assay [5] (read-out: pIC50 (converted)) it was 13.6 µM.
On to `COc1ccc(C(CN(Cc2ccccc2)C(=O)OC(C)(C)C)OS(=O)(=O)c2cccc(Cl)c2Cl)cc1` (stereo not given), for which the MIC is above 50 µM in assay [1]; above 50 µM in assay [2]; above 50 µM in assay [3]; below 50 µM in assay [4]; below 50 µM in assay [5]. Also, the IC50 in assay [4] (read-out: IC50) was 13.4 µM; in assay [4] (read-out: pIC50 (converted)), 13.4 µM; in assay [5] (read-out: IC50) it was 14.9 µM; in assay [5] (read-out: pIC50 (converted)), 14.9 µM.
For the molecule `Cc1ccc(C(CN(Cc2ccccc2)C(=O)OC(C)(C)C)OS(=O)(=O)c2c(Cl)cccc2Cl)cc1` (stereo not given), the MIC in assay [1] is above 50 µM; in assay [2], above 50 µM; in assay [3] it was above 50 µM; in assay [5], below 50 µM. Besides, the values for the IC50 in assay [5] (read-out: IC50) and in assay [5] (read-out: pIC50 (converted)) were 4.39 µM and 4.4 µM, respectively.
As to `Cc1ccc(C(CN(Cc2ccccc2)C(=O)OC(C)(C)C)OS(=O)(=O)c2cccc(Cl)c2Cl)cc1` (stereo not given), the MIC in assay [1] is above 50 µM; in assay [2], above 50 µM; in assay [3] it was above 50 µM; in assay [4] it was below 50 µM. Moreover, the IC50 in assay [4] (read-out: IC50) and in assay [4] (read-out: pIC50 (converted)) was 10.7 µM each time.
